# Measurements: the supplement of paper PMC10307832
# Assays:
# Experiment in all cases: relative viability (nuclei count vs DMSO), 5 days (fraction); higher = more cells survive
# Zosuquidar + Luminespib = compound: O[C@@H](COc1cccc2ncccc12)CN1CCN([C@@H]2c3ccccc3[C@@H]3[C@H](c4ccccc42)C3(F)F)CC1 [Zosuquidar] + CCNC(=O)c1noc(-c2cc(C(C)C)c(O)cc2O)c1-c1ccc(CN2CCOCC2)cc1 [Luminespib] (partner 0.01 µM)
# How it was run: (§1)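 For relative viability, nuclei counts in treated wells were divided by those in vehicle wells. Lung cancer cell lines had been pin-tool dosed in 1536-well plates the day after seeding and cultured for 5 days, then fixed and stained in one step (final 0.05% Triton X-100, 1% formaldehyde, 1 ug/ml Hoechst) and imaged at 4×. Doses were one drug alone or a fixed anchor-drug dose plus five library-drug doses (not always all listed) in √10 steps, and values are duplicate-plate medians.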
# Cabozantinib + Alpelisib = compound: COc1cc2nccc(Oc3ccc(NC(=O)C4(C(=O)Nc5ccc(F)cc5)CC4)cc3)c2cc1OC [Cabozantinib] + Cc1nc(NC(=O)N2CCC[C@H]2C(N)=O)sc1-c1ccnc(C(C)(C)C(F)(F)F)c1 [Alpelisib] (partner 2 µM)
# How it was run: as §1
# Kobe2602 + Palbociclib = compound: C1=CC(=CC=C1NC(=S)NNC2=C(C=C(C=C2[N+](=O)[O-])C(F)(F)F)[N+](=O)[O-])F [Kobe2602] + CC(=O)c1c(C)c2cnc(Nc3ccc(N4CCNCC4)cn3)nc2n(C2CCCC2)c1=O [Palbociclib] (partner 0.5 µM)
# How it was run: as §1
# [1] = compound: COc1cc2nccc(Oc3ccc(NC(=O)C4(C(=O)Nc5ccc(F)cc5)CC4)cc3)c2cc1OC [Cabozantinib] + CC(=O)Nc1cccc(-n2c(=O)n(C3CC3)c(=O)c3c(Nc4ccc(I)cc4F)n(C)c(=O)c(C)c32)c1 [Trametinib] (partner 0.02 µM)
# How it was run: as §1
Cell Line,relative viability (Zosuquidar + Luminespib; first compound 0.01 µM),relative viability (Zosuquidar + Luminespib; first compound 0.03162 µM),relative viability (Zosuquidar + Luminespib; first compound 0.1 µM),relative viability (Zosuquidar + Luminespib; first compound 0.3162 µM),relative viability (Zosuquidar + Luminespib; first compound 1 µM),relative viability (Cabozantinib + Alpelisib; first compound 0.06325 µM),relative viability (Cabozantinib + Alpelisib; first compound 0.2 µM),relative viability (Cabozantinib + Alpelisib; first compound 0.6325 µM),relative viability (Cabozantinib + Alpelisib; first compound 2 µM),relative viability (Kobe2602 + Palbociclib; first compound 0.2 µM),relative viability (Kobe2602 + Palbociclib; first compound 0.6325 µM),relative viability (Kobe2602 + Palbociclib; first compound 6.325 µM),relative viability (Kobe2602 + Palbociclib; first compound 20 µM),relative viability ([1]; first compound 0.02 µM),relative viability ([1]; first compound 0.06325 µM),relative viability ([1]; first compound 0.2 µM),relative viability ([1]; first compound 0.6325 µM),relative viability ([1]; first compound 2 µM),relative viability (Cabozantinib + Alpelisib; first compound 0.02 µM),relative viability (Kobe2602 + Palbociclib; first compound 2 µM)
LCLC-97TM1,0.765,0.755,0.742,0.814,0.913,0.259,0.264,0.284,0.297,0.192,0.242,0.218,0.194,0.197,0.236,0.214,0.212,0.19,–,–
LU99A,0.201,0.22,0.256,0.276,0.303,0.495,0.429,0.502,0.543,0.424,0.488,0.473,0.451,0.475,0.56,0.535,0.573,0.41,0.469,0.411
NCI-H1299,–,–,–,–,–,1.06,1.12,1,1.12,–,–,–,–,–,–,–,–,–,1.06,–
NCI-H1355,0.741,0.752,0.644,0.822,0.824,0.873,0.904,0.857,0.732,0.341,0.367,0.398,0.406,0.433,0.462,0.441,0.421,0.435,0.934,0.385
HARA,0.586,–,0.837,0.92,0.649,1.05,0.639,0.788,0.84,0.331,0.227,0.268,0.366,0.749,0.772,–,0.883,0.633,0.878,0.237
LXF-289,0.665,0.762,0.675,0.711,0.581,1.09,1.01,1,0.997,0.585,0.597,0.556,0.62,0.735,0.654,0.659,0.719,0.695,1.11,0.59
201T,1.02,1,0.961,1.12,1.04,1.05,0.981,0.99,0.958,0.378,0.375,0.394,0.322,0.71,0.731,0.686,0.729,0.727,1.03,0.351
HCC-827,0.518,0.576,0.501,0.704,0.7,1.04,–,0.925,0.9,0.528,0.574,0.489,0.53,0.529,0.586,–,0.504,0.476,0.977,0.621
NCI-H1703,–,–,–,–,–,0.182,0.223,0.23,0.151,–,–,–,–,–,–,–,–,–,0.265,–
NCI-H1975,0.264,0.174,0.217,0.213,0.182,0.807,0.669,0.604,0.623,0.668,0.599,0.544,0.631,0.331,0.389,0.638,0.417,0.217,0.675,0.613
NCI-H2023,0.796,0.619,0.904,0.776,0.759,0.591,0.559,0.514,0.335,0.33,0.41,0.32,0.255,0.497,0.707,0.445,0.381,0.293,0.613,0.405
ChaGo-K-1,0.714,0.625,0.652,0.578,0.512,–,–,–,–,0.977,0.926,0.894,0.83,0.838,0.906,0.928,0.893,0.899,–,0.83
COR-L 105,0.923,0.789,0.757,0.858,0.782,1.08,–,0.945,0.859,0.423,0.413,0.438,0.383,0.422,0.377,0.4,0.405,0.481,0.898,0.422
SK-MES-1,0.72,0.732,0.732,0.881,0.938,0.993,0.846,0.826,0.816,0.323,0.338,0.28,0.201,0.605,0.666,0.615,0.535,0.533,1.08,0.335
A549,–,–,–,–,–,0.884,0.833,0.809,0.794,–,–,–,–,–,–,–,–,–,0.877,–
NCI-H23,0.206,0.223,0.223,0.222,0.266,0.794,0.716,0.646,0.545,0.559,0.568,0.522,0.544,–,0.358,0.42,0.377,0.389,–,0.446
NCI-H1993,0.874,0.78,1.55,0.778,0.75,0.719,0.662,0.713,0.798,0.679,0.543,0.589,0.525,0.508,0.531,0.526,0.436,0.571,0.71,0.48
Calu-6,–,–,–,–,–,1.09,1.05,1.04,0.906,–,–,–,–,–,–,–,–,–,1.02,–
NCI-H1648,–,–,–,–,–,–,–,–,–,0.237,0.275,0.228,0.283,0.501,0.448,–,0.672,0.419,–,0.248
NCI-H1623,0.371,0.511,0.539,0.451,0.476,–,–,–,–,–,–,–,–,–,–,–,–,–,–,–
